Where two headings read alike, the source gives them in different places. Values belong to the molecule of their own block, whether it stands above or below them.
Legend:
cells = assay: Growth inhibition by 8-Cl-AMP; format: cell-based; settings: as high as 100 μM
[1] = tested on: c-myc protein, Molt-4 leukemic cells; assay: Western blotting of c-myc protein (FIG. 9B); format: cell-based, human; settings: three days; 8-Cl-cAMP 5 μM, DBcAMP 1 mM, 8-Cl-adenosine 5 μM
Protocol: The cells were grown in suspension culture in RPMI 1640 medium supplemented with 10% fetal bovine serum, penicillin (50 U/ml), streptomycin (500 μg/mL), 10 mM HEPES buffer, and extra glutamine. […] Surface antigen analysis of HL-60 cells was performed by flow cytometry using a panel of monoclonal antibodies reactive with either myeloid cells or monocytic cells. Terminal deoxynucleotidyl transferase (TdT) was assayed by an immunoperoxidase method using a TdT fluorescence kit. Western blotting of c-myc protein was performed using c-myc antibody 15206D11 (Scripps Clinic and Research Foundation, LaJolla, Calif.).
M, marker proteins of known molecular weight. […] The resulting supernatants were used as cell lysates. […] ND=nondetectable.

LS-174T = assay: Cell cycle analysis by flow cytometry (Table 3); format: cell-based, human; settings: 5 μM; 3 days
Protocol: (§1) DNA histograms were generated on FACS II by using the DNA intercalating dye propidium iodide as described by Braylan et al. in Cytometry 2: 337-343, 1982. The percentage of cells in each cycle phase was calculated by using a PDP-11/34 computer and software as described by Neckers et al., Mol. Cell. Biol. 6: 4244-4250, 1986.
(§2) Breast (MCF-7, MDA-MB-231) and colon (LS-174T) cancer cells in log
(§3) phase (untreated control) and 3 days after treatment with 8-C1-cAMP
(§4) (10 μM), N^6 -benzyl-cAMP (35 μM), and 8-Cl-adenosine (5
(§5) were analyzed for DNA content by flow cytometric analysis as described
(§6) below. Similar results were obtained with other breast and colon cancer
^a The paired numbers were derived from two separate experiments.

[2] = tested on: p21 ras protein, MCF-7 cells; assay: Western blotting of p21 ras protein (Table 11, FIG. 7); format: cell-based, human
Protocol: Western blotting of p21 protein was performed as described below. […] V is cell lysate from Ha-MuSV-transformed NIH3T3 clone 13-3B-4. M, marker proteins of known molecular weight.
Each lane contained 100 micrograms of protein for SDS-PAGE.
Cellular proteins present in cell extracts were separated by 12% SDS-PAGE and transferred to nitrocellulose sheets in transfer buffer (25 mM Tris, 192 mM glycine, 20% methanol, pH 7.4). Nitrocellulose sheets were washed and first incubated with 3% bovine serum albumin in NTE-NP40 (50 mM Tris-HCl, pH 7.5, 150 mM NaCl, 2 mM EDTA, 0.1% Nonidet P-40) for three hours at 37° C. and then sequentially incubated with medium containing p21 monoclonal antiserum Y13-259 directed against the Ha-MuSV-encoded p21 for sixteen hours at 4° C., rabbit anti-rat IgG for 2.5 hours in an ice water bath, and 5×10^5 cpm/ml ^125 I-protein A for one hour in an ice water bath. The nitrocellulose sheets were air dried and exposed to Kodak XAR film for 12-36 hours at -20° C. Comparison of the resulting autoradiograms with others in which normal rat serum was substituted for p21 monoclonal antibody permitted identification of p21. To provide a reference p21, cell lysates were prepared from NIH 3T3 clone 13-3B-4 that had been transfected with HaMuSV DNA.
The levels of p21 protein are expressed relative to the p21 level in the untreated control cells which is set equal to 1.0 O.D.

MCF-7 = assay: Growth of MCF-7 cells (Tables 3, 11); format: cell-based; settings: Homo sapiens, MCF7, 72 h, Table 11; 8-Cl-cAMP 10 μM, 8-Cl-adenosine 5 μM, DBcAMP 500 μM; control 100
Protocol: (§7) All breast cancer cell lines were grown in IMEM supplemented with 10% fetal bovine serum, HEPES 20 mM, penicillin-streptomycin, and extra glutamine. Colon carcinoma cell lines were grown in EMEM supplemented with 10% FBS, EMEM, NEAA, HEPES 20 mM, extra glutamine, and penicillin-streptomycin. The cells were grown at 37° C. in humidified incubators in an atmosphere of 5% CO2.
(§8) For cell growth experiments, 2-3×10^5 cells/60 mm dish were seeded, and 24 hours later (Day 0), the medium was removed, and fresh medium and the additives were added then and every 48 hours thereafter. The compounds of the present invention were added using 100X concentrated stock solutions. At desired times, cell counts in duplicate were performed on a Coulter counter after harvesting the cells with gentle trypsinization.

[3] = tested on: RI cAMP receptor protein, Molt-4 leukemic cells; assay: Photoaffinity labelling of RI cAMP receptor protein (FIG. 9A); format: cell-based, human; settings: three days; 8-Cl-cAMP 5 μM, DBcAMP 1 mM, 8-Cl-adenosine 5 μM
[4] = tested on: LS-174T colon cancer line; assay: Growth and release from growth inhibition (FIG. 3); format: cell-based, human; settings: 5 μM
Protocol: 1×10^5 cells/60 mm dish were seeded, and 24 hours later (Day 0), the medium was removed and fresh medium and additives were added then and every 48 hours thereafter. […] The triplicate cell count for each experimental point never varied by more than 10%.

MDA-MB-231 [5] = assay: Cell cycle analysis by flow cytometry (Table 3); format: cell-based, human; settings: 35 μM; 3 days
Protocol: as §1, §2, §3, §4, §5, §6

HL-60 Cells = assay: Cell cycle kinetics of HL-60 cells (Table 17); format: cell-based, human; settings: 10 μM, 96 hours
Protocol: Briefly, cells were fixed in 70% ethanol and stored at 4° C. before analysis. Nuclear DNA was stained with propidium iodide, 50 μg/ml in phosphate-buffered saline (pH 7.4), for 30 minutes at room temperature. RNase was added to avoid double-helix RNA staining. The DNA content of cells was analyzed by a FACScan flow cytometer coupled with a Hewlett-Packard computer. Cell cycle data analysis was performed by a Cell-FIT program according to the method of Dean (Cell Tissue Kinet. 13: 299-308 (1980)) (Becton Dickinson Immunocytometry Systems). Pulse area versus pulse width gating was performed to exclude doublets from the G2 -M region. For each sample, 20,000 events were stored in list mode. Cell surface antigen analysis was performed by flow cytometry with FACScan using a panel of monoclonal antibodies reactive with either monocytic or myeloid cells.

[6] = tested on: RI and RII cAMP receptor proteins, breast (MDA-MB-231) and colon (LS-174T) cancer cells; assay: cAMP receptor protein levels, breast and colon cancer cells (FIG. 6); format: cell-based, human
Protocol: (§9) Photoactivated incorporation of 8-N3 [^32 P] was performed as described below.
(§10) M is marker proteins of known molecular weight.
The incubations were carried out at 23° C. for 60 minutes in 96-well immunoplates. […] The gels were fixed, dried, and exposed to X-ray films overnight.

[7] = tested on: RI and RII cAMP receptor proteins, MDA-MB-231; assay: Photoaffinity labelling of cAMP receptor proteins (Table 10, FIG. 6); format: cell-based, human; settings: 3 days, 8-Cl and N^6-benzyl 10 μM, dibutyryl 1 mM
Protocol: as §9, §10
(§11) Each lane contained 50 micrograms protein for SDS-PAGE.
(§12) The incubations were carried out at 23° C. for 60 minutes in 96-well immunoplates. The reaction mixtures were then irradiated for 30 seconds at 254 nm, placing a Mineralite UVS-11 hand lamp directly onto the plate. The samples were mixed with 25 microliters of 3× sample buffer (3% SDS, 15% beta-mercaptoethanol, 30 mM Tris, 30% glycerol, 1% bromophenol blue saturated solution), boiled for 3 minutes, and centrifuged at 700 × g for five minutes. The samples containing 10-30 micrograms of protein were subjected to 0.05% SDS-12% PAGE. The gels were fixed, dried, and exposed to X-ray films overnight. The protein concentrations were determined by the method of Lowry et al., J. Biol. Chem. 193: 265-275, 1951, with bovine serum albumin as standard.
(§13) The levels of the receptor proteins are expressed relative to the RI level in the untreated control cells of MDA-MB-231 and LS-174T which are each set equal to 1.0 O.D.; the scale was expanded to differentiate the lower intensity bands.

[8] = tested on: RI and RII cAMP receptor proteins, LS-174T; assay: as above; format: cell-based, human; settings: 3 days, 8-Cl and N^6-benzyl 10 μM, dibutyryl 1 mM
Protocol: as §9, §10, §11, §12, §13

[9] = tested on: breast and colon cancer cells; assay: Effect on cell morphology (FIG. 2); format: cell-based, human
From the text: The photographs were taken on Day 4, ×160.
Furthermore, the synergistic growth inhibitory effect of C-6 and C-8 analogue combinations was also reflected in the change in the cell morphology.

[10] = tested on: breast and colon cancer lines (MCF-7, T-47D, ZR-75-1, MCF-7ras, MDA-MB-231, BT-20, HBL-100, LS-174T, WiDr, HT-29); assay: Growth inhibition of breast and colon cancer lines (FIG. 1); format: cell-based, human; settings: densitometry text
[11] = tested on: four leukemic cell lines (HL-60, K-562, myc-K562, Molt-4); assay: Growth inhibition of leukemic cell lines; format: cell-based, human; settings: Homo sapiens; leukemic cell lines, range
K-562 = assay: Growth inhibition of leukemic cells (Table 12); format: cell-based; settings: Homo sapiens, K562
myc-K562 = assay: Growth inhibition of leukemic cells (Table 12); format: cell-based; settings: Homo sapiens
HL-60 = assay: Growth inhibition of leukemic cells (Table 12); format: cell-based; settings: Homo sapiens
[12] = tested on: breast (MCF-7) and colon (LS-174T) cancer cell lines; assay: Growth inhibition of breast and colon cancer cells (Table 1); format: cell-based, human; settings: Homo sapiens
Protocol: The compounds of the present invention were added using 100X concentrated stock solutions. At desired times, cell counts in duplicate were performed on a Coulter counter after harvesting the cells with gentle trypsinization. […] Cell counts were performed on each of three or more separate experiments, and the average values are expressed as percent growth inhibition as compared with untreated control cells. | ^a The values of percentage growth inhibition were determined from th | doseresponse curve experiments. Each value represents an average value an | range (in parentheses) obtained from three or more separate experiments. | The cell counts in duplicate were performed at day 3 and day 4 after two | treatments (day 0 and day 2) with analogs (seeding on day -1).

MDA-MB-231 [13] = assay: Growth of MDA-MB-231 cells (Tables 3, 10); format: cell-based; settings: Homo sapiens, MDA-MB-231, 72 h, 3 days, control 100 (Table 3)
Protocol: as §7, §8

Molt-4 = assay: Growth inhibition of leukemic cells (Table 12); format: cell-based, human; settings: Homo sapiens, MOLT-4; read-out: Inhibition of Growth IC50, Molt-4

Compound: Nc1ncnc2c1nc(Cl)n2[C@@H]1O[C@H](COP(=O)(O)O)[C@@H](O)[C@H]1O [8-Cl-AMP]
growth inhibition (cells): no appreciable growth inhibition

Compound: Nc1ncnc2c1nc(Cl)n2[C@@H]1O[C@H](CO)[C@@H](O)[C@H]1O [8-Cl-adenosine]
c-myc protein level [1]: not observed | cell cycle phase distribution (LS-174T): appreciable increase of the cell population in G1 phase with a marked reduction in S-phase | p21 (Relative Level) ([2]; 3 days, 8-Cl-cAMP 10 μM, 8-Cl-adenosine 5 μM, DBcAMP 500 μM, control = 1.0 O.D.): 1.0 ± 0.1 | p21 level ([2]; three days): did not appreciably affect the p21 level | activity at 5 µM (MCF-7): 38% | RI receptor protein level [3]: not observed | cell growth after release from treatment [4]: did not resume their growth up to two weeks after the release from the treatment | cell growth during treatment [4]: marked reduction in cell growth and eventually stopped replicating within three to four days

IC50 [11]: 10 to 30 µM | IC50 (K-562): 27 µM | IC50 (myc-K562): 30 µM | IC50 (HL-60): 20 µM | IC50 (Molt-4): 10 µM
Compound: O=P1(O)OC[C@H]2O[C@@H](n3cnc4c(NCc5ccccc5)ncnc43)[C@H](O)[C@@H]2O1 [N^6 -benzyl-cAMP]
% Cell Population in G1 (MDA-MB-231 [5]): 60% | % Cell Population in G2M (MDA-MB-231 [5]): 15% | % Cell Population in S (MDA-MB-231 [5]): 25% | cell cycle phase distribution (MDA-MB-231 [5]): not appreciably different | % G2 M (HL-60 Cells; control 8.3): 9.6% | % G0-G1 (HL-60 Cells; control 45.7): 44.4% | % S (HL-60 Cells; control 46): 46% | decrease in the RI level ([6]; densitometric tracings): 70-80% | increase in the ratio of RII to RI ([6]; densitometric tracings): two- to three-fold increase | RI and RII receptor levels ([6]; three days, FIG. 6): the cAMP receptor protein with a molecular weight of 52,000 increased appreciably with concomitant decrease of the 48,000 RI receptor protein | RII/RI [7]: 0.28 | relative level of RI ([7]; control RI = 1.0 O.D.): 0.25 ± 0.03 | relative level of RII ([7]; control RI = 1.0 O.D.): 0.07 ± 0.01 | RII/RI [8]: 1.25 | relative level of RI ([8]; control RI = 1.0 O.D.): 0.20 ± 0.02 | relative level of RII ([8]; control RI = 1.0 O.D.): 0.25 ± 0.02 | cell morphology ([9]; 0.5 μM alone, four days): did not induce a change in the cell morphology | cell morphology ([9]; 50 μM, three to four days): induced the morphological change | growth inhibition of cancer lines [10]: 45-70% | inhibition at 50 µM ([12]; 72 h, 50 μM, day 3, average (range), read-out: % Growth Inhibition, Day 3): 56% | inhibition at 50 µM ([12]; 96 h, 50 μM, day 4, average (range), read-out: % Growth Inhibition, Day 4): 70% | inhibition at 50 µM ([12]; 50 micromolar, read-out: growth inhibition): 30 to 70% | activity at 35 µM (MDA-MB-231 [13]): 45%
